# Assay results from PMC7719162, “Positioning of an unprecedented spiro[5.5]undeca ring system into kinase inhibitor space” (Scientific Reports, 2020).
# Read-outs that look alike come from different tables or passages of the source.
# Columns and labels:
# [1] = molecular target: T1, MST3/STK24 (Homo sapiens, UniProt Q9Y6E0); settings: cited from earlier work
# T1 construct: purchased Reaction Biology Corp
# [2] = test system: NO production in LPS-activated BV-2 cells; test: NO production assay (Griess) in LPS-activated BV-2 cells; type: cell-based, murine; settings: read-out: NO Inhibition IC50
# Method: 3-(4,5-dimethylthiazol-2-yl)-2,5-diphenyl-tetrazolium bromide (MTT) assay was performed to evaluate the cytotoxicity of the samples to the microglia. BV2 cells at the density of 4 × 10^4 cells /well were seeded in the 96 well plate and incubated for 24 h. Seeded cells were pre-treated with different concentration of the samples, and LPS (100 ng/ml) activation was performed after 30 min of compound treatment. Treated plate were incubated for 24 h in the incubator and nitric oxide assay and cell viability assay was performed. Treated cell’s conditioned medium was used to evaluate the NO assay, and the attached cells were used to evaluate the cell viability assay. 50 µL of conditioned medium (CM) from treated cells were transferred to a new 96 well plate for NO assay. This CM was mixed with the equal volume of the mixture of Gries reagent ((1% sulfanilamide and 0.1% N-1-napthylethylenediamine dihydrochloride). NaNO2 was used as standard and the colorimetric change were evidenced by measuring its OD at 540 nm in a microplate reader. The cells in the plate were incubated for 1 h with MTT solution making it the final concentration of […]. Blue stained cells were incubated with 200 ul of DMSO and the solution get changed to purple/formazan color and it was observed by measuring the absorbance at 570 nm in a microplate reader.NG-mono-methyl-L-arginine (L-NMMA), a well-known nitric oxide synthase (NOS) inhibitor, was used as a positive control.
# [3] = molecular target: T2, TRKB (Homo sapiens, UniProt Q16620); settings: cited from earlier work
# T2 construct: purchased Reaction Biology Corp
# [4] = molecular target: T3, JNK3 (Homo sapiens, UniProt P53779); settings: cited from earlier work
# T3 construct: purchased Reaction Biology Corp
# [5] = molecular target: T4, ROCK2 (Homo sapiens, UniProt O75116); settings: cited from earlier work
# T4 construct: purchased Reaction Biology Corp
# T4 sequence (O75116 whole entry): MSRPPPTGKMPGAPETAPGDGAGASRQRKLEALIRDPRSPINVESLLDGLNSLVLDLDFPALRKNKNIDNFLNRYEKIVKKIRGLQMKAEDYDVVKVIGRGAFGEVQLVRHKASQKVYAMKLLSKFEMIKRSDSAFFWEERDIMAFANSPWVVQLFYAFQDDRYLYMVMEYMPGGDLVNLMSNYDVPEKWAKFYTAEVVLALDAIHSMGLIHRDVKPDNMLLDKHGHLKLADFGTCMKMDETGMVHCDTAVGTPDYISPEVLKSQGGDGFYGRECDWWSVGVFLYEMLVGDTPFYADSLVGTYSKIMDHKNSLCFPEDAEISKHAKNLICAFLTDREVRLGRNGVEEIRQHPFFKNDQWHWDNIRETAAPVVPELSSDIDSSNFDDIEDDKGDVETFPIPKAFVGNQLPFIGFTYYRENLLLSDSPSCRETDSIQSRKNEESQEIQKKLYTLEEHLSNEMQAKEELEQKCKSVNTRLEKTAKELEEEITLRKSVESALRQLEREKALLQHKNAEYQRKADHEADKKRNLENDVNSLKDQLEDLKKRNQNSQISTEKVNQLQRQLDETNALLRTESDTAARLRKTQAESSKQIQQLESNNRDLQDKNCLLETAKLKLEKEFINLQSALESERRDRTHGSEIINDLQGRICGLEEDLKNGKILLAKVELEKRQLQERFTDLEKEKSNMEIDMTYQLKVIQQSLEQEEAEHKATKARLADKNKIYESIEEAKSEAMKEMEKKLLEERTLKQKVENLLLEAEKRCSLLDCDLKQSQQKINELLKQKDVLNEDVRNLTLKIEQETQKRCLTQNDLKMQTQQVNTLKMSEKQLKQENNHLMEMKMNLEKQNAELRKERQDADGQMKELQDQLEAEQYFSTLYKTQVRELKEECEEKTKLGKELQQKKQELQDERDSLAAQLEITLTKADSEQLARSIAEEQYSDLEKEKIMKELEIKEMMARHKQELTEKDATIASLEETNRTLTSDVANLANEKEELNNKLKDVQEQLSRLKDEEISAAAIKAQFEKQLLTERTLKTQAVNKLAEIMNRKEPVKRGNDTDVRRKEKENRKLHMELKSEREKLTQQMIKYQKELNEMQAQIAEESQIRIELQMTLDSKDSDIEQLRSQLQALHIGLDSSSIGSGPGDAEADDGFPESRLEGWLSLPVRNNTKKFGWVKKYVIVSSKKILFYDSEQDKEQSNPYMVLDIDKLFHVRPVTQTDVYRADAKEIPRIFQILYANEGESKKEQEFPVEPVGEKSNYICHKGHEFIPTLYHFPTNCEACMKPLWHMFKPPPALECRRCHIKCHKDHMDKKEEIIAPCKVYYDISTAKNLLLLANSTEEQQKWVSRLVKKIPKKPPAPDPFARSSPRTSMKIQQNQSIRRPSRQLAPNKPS
# [6] = molecular target: T5, DAPK1 (Homo sapiens, UniProt P53355); test: Kinase panel assay (radiolabelled); type: biochemical; settings: ATP 10 μM
# T5 construct: purchased Reaction Biology Corp
# T5 sequence (P53355 whole entry): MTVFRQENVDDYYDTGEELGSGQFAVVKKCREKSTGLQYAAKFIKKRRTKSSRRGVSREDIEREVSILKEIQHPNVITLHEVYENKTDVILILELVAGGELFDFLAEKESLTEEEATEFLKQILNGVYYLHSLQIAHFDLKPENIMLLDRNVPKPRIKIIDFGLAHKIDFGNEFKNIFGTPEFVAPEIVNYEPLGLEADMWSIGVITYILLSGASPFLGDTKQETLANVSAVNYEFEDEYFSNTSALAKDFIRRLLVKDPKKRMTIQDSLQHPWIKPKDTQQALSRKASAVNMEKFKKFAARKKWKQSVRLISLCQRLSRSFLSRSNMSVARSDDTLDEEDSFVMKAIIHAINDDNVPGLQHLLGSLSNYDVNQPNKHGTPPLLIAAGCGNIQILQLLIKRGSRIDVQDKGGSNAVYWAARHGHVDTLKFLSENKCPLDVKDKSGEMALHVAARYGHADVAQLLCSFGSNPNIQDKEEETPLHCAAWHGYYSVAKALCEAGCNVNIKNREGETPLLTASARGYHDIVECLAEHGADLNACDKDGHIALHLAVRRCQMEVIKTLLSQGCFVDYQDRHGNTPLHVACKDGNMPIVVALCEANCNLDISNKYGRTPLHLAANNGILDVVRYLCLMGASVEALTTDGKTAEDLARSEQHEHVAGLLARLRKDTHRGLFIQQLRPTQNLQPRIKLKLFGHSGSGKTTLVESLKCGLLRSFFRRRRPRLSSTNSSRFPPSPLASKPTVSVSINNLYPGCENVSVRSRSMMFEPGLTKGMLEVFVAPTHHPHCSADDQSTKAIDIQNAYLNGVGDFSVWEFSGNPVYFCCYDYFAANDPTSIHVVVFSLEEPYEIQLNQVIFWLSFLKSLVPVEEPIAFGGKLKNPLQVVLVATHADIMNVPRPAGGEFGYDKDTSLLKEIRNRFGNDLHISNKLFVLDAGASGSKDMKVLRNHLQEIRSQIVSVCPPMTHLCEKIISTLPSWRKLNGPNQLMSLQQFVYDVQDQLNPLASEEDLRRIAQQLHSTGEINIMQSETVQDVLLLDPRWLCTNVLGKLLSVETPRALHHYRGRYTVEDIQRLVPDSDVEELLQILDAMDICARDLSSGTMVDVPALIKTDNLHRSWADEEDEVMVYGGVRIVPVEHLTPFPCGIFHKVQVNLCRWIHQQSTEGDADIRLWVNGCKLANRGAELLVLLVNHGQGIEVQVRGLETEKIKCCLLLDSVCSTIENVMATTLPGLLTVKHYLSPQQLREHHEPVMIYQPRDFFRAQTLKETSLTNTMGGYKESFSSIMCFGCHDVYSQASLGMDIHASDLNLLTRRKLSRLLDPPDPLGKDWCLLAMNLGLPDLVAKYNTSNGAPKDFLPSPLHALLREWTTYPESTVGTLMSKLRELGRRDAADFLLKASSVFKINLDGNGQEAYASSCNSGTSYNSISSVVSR
# [7] = molecular target: T6, TRKA (G667C) (Homo sapiens, UniProt P04629, G667C); test: Kinase panel assay (radiolabelled); type: biochemical; settings: 30 μM compound, ATP 10 μM, duplicates Data 1/Data 2
# T6 construct: purchased Reaction Biology Corp
# [8] = molecular target: T4, ROCK2; test: Kinase panel assay (radiolabelled); type: biochemical; settings: ATP 10 μM
# [9] = molecular target: TRKA-TPM3 (Homo sapiens, UniProt P04629); test: Kinase panel assay (radiolabelled); type: biochemical; settings: 30 μM compound, ATP 10 μM, duplicates Data 1/Data 2
# Chain of TRKA-TPM3 (P04629 399-796): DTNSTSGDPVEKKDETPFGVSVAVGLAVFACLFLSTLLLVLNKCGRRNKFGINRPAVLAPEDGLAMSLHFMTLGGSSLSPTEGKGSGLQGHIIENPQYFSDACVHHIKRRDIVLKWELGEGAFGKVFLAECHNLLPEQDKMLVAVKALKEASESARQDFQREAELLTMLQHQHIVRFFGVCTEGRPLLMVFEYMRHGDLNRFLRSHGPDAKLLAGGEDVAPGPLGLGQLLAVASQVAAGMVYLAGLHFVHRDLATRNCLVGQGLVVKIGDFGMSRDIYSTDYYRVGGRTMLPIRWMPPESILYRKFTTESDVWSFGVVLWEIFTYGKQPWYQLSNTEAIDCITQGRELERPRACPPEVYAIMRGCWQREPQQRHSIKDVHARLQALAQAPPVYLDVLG
# Chain of TRKA-TPM3 (P06753 2-258 partner): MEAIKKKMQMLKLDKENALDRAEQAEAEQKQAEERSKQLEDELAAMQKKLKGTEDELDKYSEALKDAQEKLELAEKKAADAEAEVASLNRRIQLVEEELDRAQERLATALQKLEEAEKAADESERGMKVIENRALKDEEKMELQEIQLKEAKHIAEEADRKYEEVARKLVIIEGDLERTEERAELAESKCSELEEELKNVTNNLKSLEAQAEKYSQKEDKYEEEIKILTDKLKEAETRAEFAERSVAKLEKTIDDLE
# [10] = molecular target: T7, EEF2K (Homo sapiens, UniProt O00418); test: Kinase panel assay (radiolabelled); type: biochemical; settings: 30 μM compound, ATP 10 μM, duplicates Data 1/Data 2
# T7 construct: purchased Reaction Biology Corp
# T7 sequence (O00418 whole entry): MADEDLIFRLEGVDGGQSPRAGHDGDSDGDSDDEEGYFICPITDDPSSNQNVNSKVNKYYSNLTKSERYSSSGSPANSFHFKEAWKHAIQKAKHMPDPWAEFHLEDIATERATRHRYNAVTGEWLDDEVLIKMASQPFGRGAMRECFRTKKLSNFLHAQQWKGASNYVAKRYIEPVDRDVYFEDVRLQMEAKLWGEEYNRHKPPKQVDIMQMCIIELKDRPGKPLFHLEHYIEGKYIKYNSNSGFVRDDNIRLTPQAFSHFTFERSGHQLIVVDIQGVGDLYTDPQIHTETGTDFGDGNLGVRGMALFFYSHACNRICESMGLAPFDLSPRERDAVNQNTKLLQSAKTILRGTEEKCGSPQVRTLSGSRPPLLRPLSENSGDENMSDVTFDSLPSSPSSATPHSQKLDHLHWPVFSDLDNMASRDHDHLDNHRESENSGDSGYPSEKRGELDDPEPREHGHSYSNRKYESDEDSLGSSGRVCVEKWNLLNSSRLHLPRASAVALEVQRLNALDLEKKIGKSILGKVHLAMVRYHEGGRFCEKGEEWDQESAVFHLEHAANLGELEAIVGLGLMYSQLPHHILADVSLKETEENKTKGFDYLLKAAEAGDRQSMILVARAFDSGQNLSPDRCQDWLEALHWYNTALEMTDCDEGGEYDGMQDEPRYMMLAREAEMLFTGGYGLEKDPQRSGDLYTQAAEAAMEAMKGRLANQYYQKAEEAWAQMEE
# [11] = molecular target: T8, AMPK(A1/B1/G1) (Homo sapiens, UniProt Q13131); test: Kinase panel assay (radiolabelled); type: biochemical; settings: 30 μM compound, ATP 10 μM; duplicates Data 1/Data 2
# T8 construct: purchased Reaction Biology Corp
# [12] = molecular target: T9, AMPK(A1/B1/G1) (Homo sapiens, UniProt P54619+Q13131+Q9Y478); test: Kinase panel assay (radiolabelled); type: biochemical; settings: 30 μM compound, ATP 10 μM; duplicates Data 1/Data 2; read-out: % Enzyme Activity (relative to DMSO controls)
# T9 construct: purchased Reaction Biology Corp
# [13] = molecular target: T10, CDK3/cyclin E (Homo sapiens, UniProt Q00526); test: Kinase panel assay (radiolabelled); type: biochemical; settings: ATP 10 μM
# T10 construct: purchased Reaction Biology Corp
# T10 sequence (Q00526 whole entry): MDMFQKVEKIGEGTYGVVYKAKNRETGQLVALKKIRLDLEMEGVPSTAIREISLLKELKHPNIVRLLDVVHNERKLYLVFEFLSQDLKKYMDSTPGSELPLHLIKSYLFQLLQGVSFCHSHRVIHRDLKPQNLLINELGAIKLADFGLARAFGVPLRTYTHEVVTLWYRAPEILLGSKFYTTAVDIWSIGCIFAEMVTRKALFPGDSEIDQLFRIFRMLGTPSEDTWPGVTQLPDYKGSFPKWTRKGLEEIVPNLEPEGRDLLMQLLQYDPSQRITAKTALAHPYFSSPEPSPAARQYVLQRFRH
# T10 sequence (P24864 whole entry partner): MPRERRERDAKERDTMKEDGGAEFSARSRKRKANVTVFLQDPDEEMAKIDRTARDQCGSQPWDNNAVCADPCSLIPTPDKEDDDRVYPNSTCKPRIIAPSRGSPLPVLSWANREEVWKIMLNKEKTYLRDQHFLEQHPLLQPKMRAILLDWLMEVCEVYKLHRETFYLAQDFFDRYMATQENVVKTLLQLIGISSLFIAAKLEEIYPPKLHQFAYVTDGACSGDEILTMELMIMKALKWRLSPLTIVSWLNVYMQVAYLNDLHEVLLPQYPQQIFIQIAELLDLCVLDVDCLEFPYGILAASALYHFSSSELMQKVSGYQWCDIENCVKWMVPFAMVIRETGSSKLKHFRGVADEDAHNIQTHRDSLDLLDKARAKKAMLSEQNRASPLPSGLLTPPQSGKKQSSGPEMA
# [14] = molecular target: T11, AMPK(A2/B2/G3) (Homo sapiens, UniProt P54646); test: Kinase panel assay (radiolabelled); type: biochemical; settings: 30 μM compound, ATP 10 μM; duplicates Data 1/Data 2
# T11 construct: purchased Reaction Biology Corp
# [15] = molecular target: T12, AMPK(A2/B2/G3) (Homo sapiens, UniProt O43741+P54646+Q9UGI9); test: Kinase panel assay (radiolabelled); type: biochemical; settings: 30 μM compound, ATP 10 μM; duplicates Data 1/Data 2; read-out: % Enzyme Activity (relative to DMSO controls)
# T12 construct: purchased Reaction Biology Corp
# [16] = molecular target: T13, PI3Kg (p110g) (Homo sapiens, UniProt P48736); test: Kinase panel assay (lipid kinase); type: biochemical; settings: 30 μM compound, ATP 10 μM, duplicates Data 1/Data 2
# T13 construct: purchased Reaction Biology Corp
# [17] = molecular target: T14, AMPK(A1/B2/G1) (Homo sapiens, UniProt O43741+P54619+Q13131); test: Kinase panel assay (radiolabelled); type: biochemical; settings: 30 μM compound, ATP 10 μM; duplicates Data 1/Data 2; read-out: % Enzyme Activity (relative to DMSO controls)
# T14 construct: purchased Reaction Biology Corp
# [18] = molecular target: T15, AMPK(A1/B2/G1) (Homo sapiens, UniProt Q13131); test: Kinase panel assay (radiolabelled); type: biochemical; settings: 30 μM compound, ATP 10 μM; duplicates Data 1/Data 2
# T15 construct: purchased Reaction Biology Corp
# [19] = molecular target: T16, AMPK(A1/B1/G3) (Homo sapiens, UniProt Q13131); test: Kinase panel assay (radiolabelled); type: biochemical; settings: 30 μM compound, ATP 10 μM; duplicates Data 1/Data 2
# T16 construct: purchased Reaction Biology Corp
# [20] = molecular target: T17, AMPK(A1/B1/G3) (Homo sapiens, UniProt Q13131+Q9UGI9+Q9Y478); test: Kinase panel assay (radiolabelled); type: biochemical; settings: 30 μM compound, ATP 10 μM; duplicates Data 1/Data 2; read-out: % Enzyme Activity (relative to DMSO controls)
# T17 construct: purchased Reaction Biology Corp
# [21] = 30 μM compound, duplicates Data 1/Data 2
# [22] = 30 μM compound, duplicates Data 1/Data 2, read-out: % Enzyme Activity (relative to DMSO controls)
# [23] = 30 μM, average ± SD, read-out: % Residual Activity at 30 μM
# [24] = read-out: % Enzyme Activity (relative to DMSO controls)
smiles,measurement,setting,value
O=C1C=CC2(C=C1)OCC(Cc1cc(C(F)(F)F)cc(C(F)(F)F)c1)C(=O)N2c1ccccc1 (racemic) [1c],% Residual Activity at 30 μM,[1],58.3 ± 0.7%
same,IC50,[2],70 ± 10 nM
same,% Residual Activity at 30 μM,[3],94.1 ± 1.7%
same,% Residual Activity at 30 μM,[4],72.0 ± 2.0%
same,% Residual Activity at 30 μM,[5],103.9 ± 2.4%
"O=C1C=CC2(C=C1)OCC(Cc1cn(-c3cccc(Cl)c3)nn1)C(=O)N2c1ccccc1 (stereo not shown) [2d, 3-((1-(3-Chlorophenyl)-1H-1,2,3-triazol-4-yl)methyl)-5-phenyl-1-oxa-5-azaspiro[5.5]undeca-7,10-diene-4,9-dione]",% Enzyme Activity (relative to DMSO controls),[6]; [21],73.41%
same,remaining activity at 30 µM,[6]; [22],75.8%
same,remaining activity at 30 µM,[6]; [23],74.6 ± 1.7%
same,IC50,[2]; Mus musculus,660 nM
same,% Enzyme Activity (relative to DMSO controls),[7],101.95%
same,remaining activity at 30 µM,[7]; [24],103%
same,% Enzyme Activity (relative to DMSO controls),[8]; [21],98.38%
same,remaining activity at 30 µM,[8]; [22],100%
same,remaining activity at 30 µM,[8]; [23],99.4 ± 1.5%
same,% Enzyme Activity (relative to DMSO controls),[9],95.56%
same,remaining activity at 30 µM,[9]; [24],98.2%
same,% Enzyme Activity (relative to DMSO controls),[10],101.96%
same,remaining activity at 30 µM,[10]; [24],103%
same,% Enzyme Activity (relative to DMSO controls),[11],60.04%
same,remaining activity at 30 µM,[12],60.9%
same,% Enzyme Activity (relative to DMSO controls),[13]; [21],59.02%
same,remaining activity at 30 µM,[13]; [22],61.6%
same,remaining activity at 30 µM,[13]; [23],60.3 ± 1.9%
same,% Enzyme Activity (relative to DMSO controls),[14],88.96%
same,remaining activity at 30 µM,[15],95.8%
same,% Enzyme Activity (relative to DMSO controls),[16],85.15%
same,remaining activity at 30 µM,[16]; [24],87.4%
same,remaining activity at 30 µM,[17],110%
same,% Enzyme Activity (relative to DMSO controls),[18],107.43%
same,% Enzyme Activity (relative to DMSO controls),[19],100.85%
same,remaining activity at 30 µM,[20],101%
